In one data set the test system is KKA^y mice. As to the kind of experiment: Antidiabetic activity in type 2 diabetic KKA^y mice. The note with it: for Efficacious in KKAy Mice: efficacious = lowers glucose without increasing triglycerides. Format: in vivo, mouse. Here is the method: Prior to commencing treatment, all of the animals are bled from the tail vein and serum levels of glucose and triglyceride are measured in duplicate. The animals are then sorted into different treatment groups with equal average triglyceride levels. The animals are treated with a single daily oral dose of the test compound suspended in sesame oil (dose volume of 3 ml/kg).
In short, adult diabetic KKA^y mice are housed in a fixed 12—12-hr artificial light-dark cycle, and maintained on a standard rodent diet. Prior to commencing treatment, all of the animals are bled from the tail vein and serum levels of glucose and triglyceride are measured in duplicate. The animals are then sorted into different treatment groups with equal average triglyceride levels. The animals are treated with a single daily oral dose ranging from 3-30 mg/kg of the test compound suspended in sesame oil (dose volume of 3-5 ml/kg). Following one week of treatment the animals are bled from the tail vein and Serum glucose and triglycerides are measured in duplicate.
In this example, compound 1, which belongs to the novel subclass of RXR ligands is compared to a typical RXR ligand like compound 2 in the treatment of KKA^y mice.
For this study, adult diabetic KKA^y mice were housed in a fixed 12—12-hr artificial light-dark cycle, and maintained on a standard rodent diet. Prior to commencing treatment, all of the animals are bled from the tail vein and serum levels of glucose and triglyceride are measured in duplicate. The animals are then sorted into different treatment groups with equal average triglyceride levels. The animals are treated with a single daily oral dose of the test compound suspended in sesame oil (dose volume of 3 ml/kg).

Data set [1] deals with Mouse 3T3-L1 preadipocytes. As to the kind of experiment: 3T3-L1 adipocyte differentiation assay. Format: cell-based. Particulars: 0.1 μM compared to Compound 1 at equal concentration; pre-adipocytes to adipocytes. As for the experimental part: Mouse 3T3-L1 cells were grown in 96-well tissue culture plates containing growing medium (DME containing 10% calf serum (CS) plus glutamine-pen-strep) at a density of 3,000 cells/well. Two days after reaching confluence, cells are treated with the different compounds in DM (Day 0). Compound 1 is included in all the experiments, and its ability to differentiate 3T3-L1 cells at 0.1 μM is taken as reference for 100% differentiation. After 7 days the lipid content of the cells was determined.
Prior to testing compounds in vivo, they can be run through the in vitro adipocyte differentiation assay based on the protocol of Zhang, et al. (1996) Negative Regulation of Peroxisome Proliferator—Activated Receptor—γGene Expression Contributes to the Antiadipogenic effects of Tumor Necrosis Factor—α. Mol. Endo. 10:1457-1456, incorporated herein by reference. In short, mouse 3T3-L1 preadipocytes are grown in culture medium containing 10% calf serum supplemented with antibiotics. Two days after reaching confluence, cells are treated with the selected compound at different concentrations dissolved in medium containing 10% fetal calf serum supplemented with antibiotics and kept at 10% CO2. The test compounds are replaced every 2-3 days. Differentiation is assessed after 7 days of treatment by the lipid content in the cells, using the Triglyceride (INFINITY) reagent (Sigma Chemical, St. Louis, Mo.).
The ability of a compound to induce preadipocytes to differentiate into adipocytes is an indicator of its antidiabetic activity. This allows for screening many compounds in a simple in vitro assay, thus avoiding the task of testing all compounds in vivo. The adipocyte differentiation assay is based on the protocol of Zhang, et al. (1996) Negative Regulation of Peroxisome Proliferator-Activated Receptor-γ Gene Expression Contributes to the Antiadipogenic effects of Tumor Necrosis Factor—α. Mol. Endo. 10:1457-1456, incorporated herein by reference at least for material related to adipocyte differentiation assays. Mouse 3T3-L1 preadipocytes are grown in culture medium containing 10% calf serum supplemented with antibiotics. Two days after reaching confluence, cells are treated with the selected compound at different concentrations dissolved in medium containing 10% fetal calf serum supplemented with antibiotics and kept at 10% CO2. The test compounds are replaced every 2-3 days. Differentiation is assessed after 7 days of treatment by the lipid content in the cells, using the Triglyceride (INFINITY) reagent (Sigma Chemical, St. Louis, Mo.) (see FIG. 15).

A further data set has as its target T1, RXR receptor (Homo sapiens, UniProt P19793).
T1 construct: expressed in transfected cells
T1 sequence (P19793 1-462): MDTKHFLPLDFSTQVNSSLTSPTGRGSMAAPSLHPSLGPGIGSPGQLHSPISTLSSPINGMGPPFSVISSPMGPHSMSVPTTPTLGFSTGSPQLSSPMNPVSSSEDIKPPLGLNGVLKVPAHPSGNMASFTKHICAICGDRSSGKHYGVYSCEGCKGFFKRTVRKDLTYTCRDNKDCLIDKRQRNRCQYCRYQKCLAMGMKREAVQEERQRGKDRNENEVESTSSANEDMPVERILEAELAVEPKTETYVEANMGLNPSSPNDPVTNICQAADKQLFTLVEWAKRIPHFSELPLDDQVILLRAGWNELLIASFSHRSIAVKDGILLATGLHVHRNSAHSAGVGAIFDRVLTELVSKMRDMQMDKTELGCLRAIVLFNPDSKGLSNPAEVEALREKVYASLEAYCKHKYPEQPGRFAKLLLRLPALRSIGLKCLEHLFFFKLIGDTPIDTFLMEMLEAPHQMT
The data set is described as follows: RXR activation (transient transfection reporter assay). Format: cell-based. Particulars: 1 μM compared to 9-cis-RA at equal concentration. The source says: RXR agonists activate the RXR receptor when interacting with RXR by binding to its binding pocket. This activation can be independent of whether the agonist, while interacting with portions of the ligand binding pocket, also interacts with side pocket 1. Activation, also often referred to as transcriptional activation, of RXR by agonists can be measured by a number of commonly used assays where the effect of the agonist ligand interacting with the RXR ligand binding pocket is to stimulate or induce transcription of a gene or genes in a cell. In one particular embodiment, transient transfection experiments (as described essentially by Zhang, et al. (1996) Negative Regulation of Peroxisome Proliferator—Activated Receptor—γ Gene Expression Contributes to the Antiadipogenic effects of Tumor Necrosis Factor—α. Mol. Endo. 10:1457-1456) can be used. In these cases, full length RXR proteins are expressed in living cells. Alternatively, hybrid proteins that contain a portion of another DNA binding domain and the ligand binding portion of the human RXRα receptor can be expressed in living cells instead of the full length RXR protein. Such hybrid proteins can bind to and activate specific reporter genes introduced into the same living cell and activation of such reporter genes is measured. The assays described here are very commonly used today by people skilled in the art of molecular biology experimenting. Transient transection assays are often used instead of ligand binding assays and can serve to measure or estimate an affinity of an RXR agonist ligand for RXR protein. The effective dose fifty (ED50, also called EC50) is the concentration of the ligand necessary to lead to one half maximal activation of the reporter gene in a living cell. Compounds that show 60% of the activity of the agonist 9-cis retenoic acid at 10^−6 M can be considered an RXR activator/agonist. Compounds which show 70% 80% 90% of the activity of the agonist 9-cis retinoic acid are also provided.
To confirm that the computer modeling/design of a compound does result in an RXR activator or RXR agonist, i.e. a compound that leads to RXR activation or transcriptional activation, commonly used assays can be applied, where the effect of the agonist or activator, interacting with the RXR ligand binding pocket is to stimulate or induce transcription of a gene or genes in a cell. In one particular embodiment, transient transfection experiments (as described essentially by Zhang, et al. (1996) Negative Regulation of Peroxisome Proliferator—Activated Receptor—γ Gene Expression Contributes to the Antiadipogenic effects of Tumor Necrosis Factor—α. Mol. Endo. 10:1457-1456) can be used. In these cases, full length RXR proteins are expressed in living cells. Alternatively, hybrid proteins that contain a portion of another DNA, binding domain and the ligand binding portion of the human RXRα receptor can be expressed in living cells instead of the fall length RXR protein. Such hybrid proteins can bind to and activate specific reporter genes introduced into the same living cell and activation of such reporter genes is measured (Brand, A. H. & Perrimon, 1993, Development, 118:401-415; Moya-Camarena, S. Y. et.al., 1999, J. Lipid Res., 40:1426:1433; Yi, Y. W. et al., 2000, Biochem. Biophys. Res. Commun., 272:193-198, each are herein incorporated by reference at least for material related to reporter assays). These assays not only measure binding of the ligand to its target, which could also be measured by an in vitro binding assay, but also measure the agonistic or activator activity of the compound. In such an assay, new compounds are compared to a standard activator like compound I or the natural agonist of RXR: 9-cis retinoic acid (see Example 7). For instance, all compounds that show at a given concentration at least 60% of the activity of 9-cis retinoic acid can be considered useful activators.

A value given as a limit tells only on which side of the number the result lay.

Turning to `CON=C1CCC(C)(C)c2cc(C)c(-c3cc(C=C4SC(=O)NC4=O)ccc3OC(F)(F)F)cc21` [Compound 7], the glucose lowering activity entry in the data set on KKA^y mice (FIG. 16) was “glucose lowering activity”. The triglyceride lowering activity entry with KKA^y mice (FIG. 17) is reported as “triglyceride lowering activity”. For the same compound, the “Efficacious in KKAy Mice” value with KKA^y mice is “Yes”. Moreover, the “Differentiation Activity” value in data set [1] was determined as 80%. In addition, the “RXR Activation” value on RXR receptor worked out at 100%.

`CO/N=C1\CCC(C)(C)c2cc(C)c(-c3cc(/C=C4\SC(=O)NC4=O)ccc3N(C)C)cc21`: the melting point was in the range of 254 to 256 °C.

Consider `Cc1cc2c(cc1-c1cc(C=C3SC(=O)NC3=O)ccc1O)C(C)(C)CCC2(C)C` [Compound 4], for which the “Efficacious in KKAy Mice” value in the data set on KKA^y mice was “No”. Further, the “Differentiation Activity” value in data set [1] was greater than 100%. Also, the “RXR Activation” value on RXR receptor is reported as greater than 100%.

`CO/N=C1\CCC(C)(C)c2cc(C)c(-c3cc(/C=C4\SC(=O)NC4=O)ccc3OC(F)(F)F)cc21` [Example 8, 3-[(1-Oxo-4,4,6-trimethyl-1,2,3,4-tetrahydronaphthalene-7-yl)-O-methyloxime]-4-trifluoromethoxy-benzylidene-2,4-thiazolidinedione] registered a melting point of 224 °C.

Regarding `Cc1cc2c(cc1C1(c3ccc(C(=O)O)cn3)CC1)C(C)(C)CCC2(C)C` [Compound 5], the “Efficacious in KKAy Mice” value with KKA^y mice is recorded as “No”. In addition, in data set [1], the “Differentiation Activity” value is listed as greater than 100%.

In turn, `CO/N=C1\CCC(C)(C)c2cc(C)c(-c3cc(/C=C4\SC(=O)NC4=O)ccc3Cl)cc21` had a melting point of 252 to 254 °C.

In the case of `COc1ccc(C=C2SC(=O)NC2=O)cc1-c1cc2c(cc1C)C(C)(C)CCC2(C)C` [Compound 6], the “Efficacious in KKAy Mice” value in the data set with KKA^y mice is “No”. In data set [1], the “Differentiation Activity” value is recorded as greater than 100%. Further, the “RXR Activation” value at RXR receptor is given as greater than 100%.

As for `CC(C)Cc1cc(-c2cc(C=C3SC(=O)NC3=O)ccc2OC(F)(F)F)c2c(c1)C(C)(C)CO2` [Compound 9], the “Efficacious in KKAy Mice” value in the data set with KKA^y mice was “Yes”. Besides, in data set [1], the “Differentiation Activity” value is listed as 30%. Moreover, the “RXR Activation” value on RXR receptor was 125%.

As for `Cc1cc2c(cc1-c1cc(C=C3SC(=O)NC3=O)ccc1N(C)C)C(C)(C)CCC2(C)C` [Compound 3], in the data set on KKA^y mice, the “Efficacious in KKAy Mice” value is on record as “Yes”. Also, the “Differentiation Activity” value in data set [1] is reported as 100%. The “RXR Activation” value on RXR receptor was found to be 120%.

Take `CCN1C(=O)CC(C)(C)c2cc(C)c(-c3cc(/C=C4\SC(=O)NC4=O)ccc3OC(F)(F)F)cc21` [Compound 8, 5-[3-(1-Ethyl-4,4,6-trimethyl-2-oxo-1,2,3,4-tetrahydro-quinolin-7-yl)-4-trifluoromethoxy-benzylidene]-thiazolidine-2,4-dione]: the “Efficacious in KKAy Mice” value in the data set on KKA^y mice is recorded as “Yes”. Also, the “Differentiation Activity” value in data set [1] is 95%. For the same compound, the “RXR Activation” value at RXR receptor was 90%.

For the origin of these results see patent US7265139B2, “RXR activating molecules” (Incyte San Diego Inc., priority 2001, dated 2007).
